Where a SMILES comes first, the peptide text is derived from it.
Assays:
[1] = molecular target: Wnt-responsive promoter (TCF/LEF); experiment: Wnt-dependent luciferase reporter assay; format: cell-based, murine
Procedure, shortened: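 EC50 (uM) derived from inhibition of luminescence in Wnt3a-stimulated murine 3T3 cells expressing luciferase under a TCF/LEF promoter, with peptides added across a concentration range and vehicle as control.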

[2] = % Viability non-Wnt responsive cells
β-catenin = molecular target: T1, β-catenin (Homo sapiens, UniProt P35222); experiment: KD50 measurement using competitive fluorescence polarization (FP) with labelled TCF4; format: binding; details: fluorescence polarization, β-catenin; for Kd: read-out: β-Cat FP KD
T1 sequence (P35222 1-781): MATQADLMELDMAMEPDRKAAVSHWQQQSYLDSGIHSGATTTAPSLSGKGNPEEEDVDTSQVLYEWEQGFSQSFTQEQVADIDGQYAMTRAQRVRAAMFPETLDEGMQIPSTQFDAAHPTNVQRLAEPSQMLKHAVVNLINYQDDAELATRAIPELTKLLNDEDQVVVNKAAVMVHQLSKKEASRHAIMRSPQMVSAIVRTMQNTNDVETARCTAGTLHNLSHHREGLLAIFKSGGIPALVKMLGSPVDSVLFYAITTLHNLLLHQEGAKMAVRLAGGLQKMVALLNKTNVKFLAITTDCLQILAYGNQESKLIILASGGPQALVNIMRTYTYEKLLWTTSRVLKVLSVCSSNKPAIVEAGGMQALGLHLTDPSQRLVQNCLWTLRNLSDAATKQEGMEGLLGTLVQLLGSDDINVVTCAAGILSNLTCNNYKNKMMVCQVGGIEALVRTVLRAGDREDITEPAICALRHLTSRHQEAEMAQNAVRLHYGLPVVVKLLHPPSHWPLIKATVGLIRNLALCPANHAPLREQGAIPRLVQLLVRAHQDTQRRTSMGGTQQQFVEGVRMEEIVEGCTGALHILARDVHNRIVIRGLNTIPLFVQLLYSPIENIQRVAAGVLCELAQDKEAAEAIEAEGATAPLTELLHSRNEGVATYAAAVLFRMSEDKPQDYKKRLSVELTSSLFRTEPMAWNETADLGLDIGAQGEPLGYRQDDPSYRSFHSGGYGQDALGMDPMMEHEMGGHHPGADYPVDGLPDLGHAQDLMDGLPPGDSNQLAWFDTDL
Procedure, shortened: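 Competitive FP in which unlabelled inhibitor (10 nM to 30 uM dilution series) displaces 5 nM labelled TCF4 from 100 nM β-catenin, room temperature. Read-out ex 470 nm, em 520 nm; experiment repeated three times.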

Row | Structure (SMILES) | EC50 [1] | viability [2] | Kd (β-catenin) | β-Cat FP Hill slope (β-catenin)
1 | CCC[C@H](N)C(=O)N[C@@H](Cc1c[nH]c2ccccc12)C(=O)N[C@@H](Cc1ccccc1)C(=O)N[C@@H](CC(C)C)C(=O)N[C@H](C(=O)N[C@@H](CS)C(=O)N[C@@H](Cc1ccccc1)C(=O)N[C@@H](Cc1c[nH]c2ccccc12)C(=O)NCC(=O)O)[C@@H](C)CC [compound 141] (HELM PEPTIDE1{[Nva].W.F.L.I.C.F.W.G}$$$$V2.0) | 7.5 to 15 µM | 100% | > 30 µM | –
2 | CC[C@H](C)[C@@H]1NC(=O)[C@H](CC(C)C)NC(=O)[C@H](Cc2ccccc2)NC(=O)[C@H](Cc2c[nH]c3ccccc23)NC(=O)[C@@H](N)CCCCNC(=O)C[C@@H](C(=O)O)NC(=O)[C@H](Cc2c[nH]c3ccccc23)NC(=O)[C@H](C)NC(=O)[C@H](CO)NC1=O [compound 202] (HELM PEPTIDE1{K.W.F.L.I.S.A.W.D}$PEPTIDE1,PEPTIDE1,1:R3-9:R3$$$V2.0) | 22.5 to 30 µM | 92.1% | > 30 µM | –
3 | CC[C@H](C)[C@@H]1NC(=O)[C@H](CC(C)C)NC(=O)[C@H](Cc2ccccc2)NC(=O)[C@H](Cc2c[nH]c3ccccc23)NC(=O)[C@@H](N)CCCCNC(=O)CC[C@@H](C(=O)O)NC(=O)[C@H](Cc2c[nH]c3ccccc23)NC(=O)[C@H](Cc2ccccc2)NC(=O)[C@H](C)NC1=O [compound 201] (HELM PEPTIDE1{K.W.F.L.I.A.F.W.E}$PEPTIDE1,PEPTIDE1,1:R3-9:R3$$$V2.0) | 22.5 to 30 µM | 60.1% | 1 to 10 µM | 0.7
4 | CC[C@H](C)[C@H](NC(=O)[C@H](CC(C)C)NC(=O)[C@H](Cc1ccccc1)NC(=O)[C@H](CC(C)C)NC(=O)[C@H](CCSC)NC(=O)[C@H](CCCNC(=N)N)NC(=O)[C@H](CO)NC(=O)[C@@H](N)CCSC)C(=O)N[C@@H](CO)C(=O)N[C@@H](Cc1ccccc1)C(=O)N[C@@H](Cc1c[nH]c2ccccc12)C(=O)NCC(=O)O [compound 52] (H-MSRMLFLISFWG-OH) | 15 to 22.5 µM | 87.2% | > 30 µM | –
5 | CC[C@H](C)[C@@H]1NC(=O)[C@H](CC(C)C)NC(=O)[C@H]([C@@H](C)CC)NC(=O)[C@H](Cc2c[nH]c3ccccc23)NC(=O)[C@@H](N)CCCCNC(=O)CC[C@@H](C(=O)O)NC(=O)[C@H](Cc2c[nH]c3ccccc23)NC(=O)[C@H](Cc2ccccc2)NC(=O)[C@H](CO)NC1=O [compound 182] (HELM PEPTIDE1{K.W.I.L.I.S.F.W.E}$PEPTIDE1,PEPTIDE1,1:R3-9:R3$$$V2.0) | 22.5 to 30 µM | 95.3% | 0.4 to 1 µM | 1.06
6 | CC[C@H](C)[C@H](NC(=O)[C@H](CC(C)C)NC(=O)[C@H](Cc1ccccc1)NC(=O)[C@H](Cc1c[nH]c2ccccc12)NC(=O)[C@H](CCSC)NC(=O)[C@H](CCCNC(=N)N)NC(=O)[C@H](CO)NC(=O)[C@@H](N)Cc1ccc(O)cc1)C(=O)N[C@@H](CO)C(=O)N[C@@H](Cc1ccccc1)C(=O)N[C@@H](Cc1c[nH]c2ccccc12)C(N)=O [compound 82] (H-YSRMWFLISFW-NH2) | > 30 µM | 84% | > 30 µM | –
7 | CC[C@H](C)[C@@H]1NC(=O)[C@H](CC(C)C)NC(=O)[C@H](Cc2ccccc2)NC(=O)[C@H](Cc2c[nH]c3ccccc23)NC(=O)[C@@H](N)CCCCNC(=O)CC[C@@H](C(=O)O)NC(=O)[C@H](Cc2c[nH]c3ccccc23)NC(=O)[C@H](Cc2ccccc2)NC(=O)[C@H](CS)NC1=O [compound 179] (HELM PEPTIDE1{K.W.F.L.I.C.F.W.E}$PEPTIDE1,PEPTIDE1,1:R3-9:R3$$$V2.0) | < 7.5 µM | 90.9% | 1 to 10 µM | 1.01
8 | CC[C@H](C)[C@H](NC(=O)[C@H](CC(C)C)NC(=O)[C@H](Cc1ccccc1)NC(=O)[C@H](Cc1c[nH]c2ccccc12)NC(=O)[C@@H](N)CCSC)C(=O)N[C@@H](CSC)C(=O)N[C@@H](Cc1ccccc1)C(=O)N[C@@H](Cc1c[nH]c2ccccc12)C(=O)NCC(=O)O [compound 214] (H-MWFLIC(Me)FWG-OH) | < 7.5 µM | 102% | 0.4 to 1 µM | 0.7
9 | CC[C@H](C)[C@H](NC(=O)[C@H](CC(C)C)NC(=O)[C@H](Cc1ccccc1)NC(=O)[C@H](Cc1c[nH]c2ccccc12)NC(=O)[C@H](CCSC)NC(=O)[C@H](CCCNC(=N)N)NC(=O)[C@H](CO)NC(=O)[C@@H](N)CCC(=O)O)C(=O)N[C@@H](CO)C(=O)N[C@@H](Cc1ccccc1)C(=O)N[C@@H](Cc1c[nH]c2ccccc12)C(N)=O [compound 86] (H-ESRMWFLISFW-NH2) | > 30 µM | 103% | > 30 µM | –
10 | CC[C@H](C)[C@H](NC(=O)[C@H](CC(C)C)NC(=O)[C@@H](NC(=O)[C@H](Cc1c[nH]c2ccccc12)NC(=O)[C@@H](N)CCCCN)[C@@H](C)CC)C(=O)N[C@@H](CS)C(=O)N[C@@H](Cc1ccccc1)C(=O)N[C@@H](Cc1c[nH]c2ccccc12)C(=O)NCC(=O)O [compound 117] (H-KWILICFWG-OH) | 15 to 22.5 µM | 138% | > 30 µM | –
11 | CC[C@H](C)[C@H](NC(=O)[C@H](CC(C)C)NC(=O)[C@H](Cc1ccccc1)NC(=O)[C@H](Cc1c[nH]c2ccccc12)NC(=O)[C@H](Cc1c[nH]cn1)NC(=O)[C@H](CCCNC(=N)N)NC(=O)[C@H](CO)NC(=O)[C@@H](N)CCSC)C(=O)N[C@@H](CO)C(=O)N[C@@H](Cc1ccccc1)C(=O)N[C@@H](Cc1c[nH]c2ccccc12)C(N)=O [compound 88] (H-MSRHWFLISFW-NH2) | > 30 µM | 105% | > 30 µM | –
12 | CC[C@H](C)[C@H](NC(=O)[C@H](Cc1c[nH]c2ccccc12)NC(=O)[C@@H](N)CCSC)C(=O)N[C@@H](CC(C)C)C(=O)N[C@H](C(=O)N[C@@H](CS)C(=O)NC(C)(Cc1ccccc1)C(=O)N[C@@H](Cc1c[nH]c2ccccc12)C(=O)NCC(=O)O)[C@@H](C)CC (stereo partly drawn) [compound 121] (HELM PEPTIDE1{M.W.I.L.I.C.[CC(Cc1ccccc1)(N[*:1])C(=O)[*:2]].W.G}$$$$V2.0) | < 7.5 µM | 150% | < 0.4 µM | 0.74
13 | CC[C@H](C)[C@H](NC(=O)[C@H](CC(C)C)NC(=O)[C@H](Cc1ccccc1)NC(=O)[C@H](Cc1c[nH]c2ccccc12)NC(=O)[C@H](CCSC)NC(C)=O)C(=O)N[C@@H](CS)C(=O)N[C@@H](Cc1ccccc1)C(=O)N[C@@H](Cc1c[nH]c2ccccc12)C(=O)NCC(=O)O [compound 198] (Ac-MWFLICFWG-OH) | < 7.5 µM | 81.4% | 0.4 to 1 µM | 2.18
14 | CC[C@H](C)[C@H](NC(=O)[C@H](CC(C)C)NC(=O)[C@H](Cc1ccccc1)NC(=O)[C@H](Cc1c[nH]c2ccccc12)NC(=O)[C@H](CCSC)NC(=O)[C@H](CCCNC(=N)N)NC(=O)[C@H](CCC(N)=O)NC(=O)[C@@H](N)CCSC)C(=O)N[C@@H](CO)C(=O)N[C@@H](Cc1ccccc1)C(=O)N[C@@H](Cc1c[nH]c2ccccc12)C(N)=O [compound 74] (H-MQRMWFLISFW-NH2) | > 30 µM | 91.2% | > 30 µM | –
15 | CC[C@H](C)[C@H](NC(=O)[C@H](CC(C)C)NC(=O)[C@H](Cc1ccccc1)NC(=O)[C@H](Cc1c[nH]c2ccccc12)NC(=O)[C@@H](N)CCSC)C(=O)N[C@@H](CO)C(=O)N[C@@H](Cc1ccccc1)C(=O)N[C@@H](Cc1c[nH]c2ccccc12)C(=O)O [compound 112] (H-MWFLISFW-OH) | < 7.5 µM | 103% | 0.4 to 1 µM | 1.82
16 | CC[C@H](C)[C@H](NC(=O)[C@H](CC(C)C)NC(=O)[C@@H](NC(=O)[C@H](Cc1c[nH]c2ccccc12)NC(=O)[C@H](CCSC)NC(C)=O)[C@@H](C)CC)C(=O)N[C@@H](CO)C(=O)N[C@@H](Cc1ccccc1)C(=O)N[C@@H](Cc1c[nH]c2ccccc12)C(=O)NCC(=O)OC [compound 222] (HELM PEPTIDE1{[ac].M.W.I.L.I.S.F.W.G.[CO[*:1]]}$$$$V2.0) | 7.5 to 15 µM | 98.2% | 1 to 10 µM | 1.56
17 | CC[C@H](C)[C@@H]1NC(=O)[C@H](CC(C)C)NC(=O)[C@H](Cc2ccccc2)NC(=O)[C@H](Cc2c[nH]c3ccccc23)NC(=O)[C@@H](N)CCCCNC(=O)CNC(=O)C[C@@H](C(=O)O)NC(=O)[C@H](Cc2c[nH]c3ccccc23)NC(=O)[C@H](C)NC(=O)[C@H](CS)NC1=O [compound 207] (HELM PEPTIDE1{K.W.F.L.I.C.A.W.[O=C(O)[C@H](CC(=O)[*:2])N[*:1]].G}$PEPTIDE1,PEPTIDE1,1:R3-10:R2$$$V2.0) | < 7.5 µM | 107% | 0.4 to 1 µM | 0.7
